ChEMBL document CHEMBL1201862, “PubChem BioAssay data set” (2004)
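The compound was tested at five concentrations on cells cultured in 96-well plates, with a 48-hour exposure period. GI50 = concentration required for 50% inhibition of growth.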 Calls of active or inactive are those of the source. Rule as the data show it: active = GI50 up to about 1.1 µM and inactive = higher.

Assays:
Test in all cases: NCI anticancer screen, dose series, 48 h
SF-268 = tested on: SF-268
HCC 2998 = tested on: HCC 2998
OVCAR-8 = tested on: OVCAR-8
ACHN = tested on: ACHN
RPMI-8226 = tested on: RPMI-8226
IGROV-1 = tested on: IGROV-1
NCI-H460 = tested on: NCI-H460
UACC-62 = tested on: UACC-62
KM12 = tested on: KM12
MDA-MB-435 = tested on: MDA-MB-435
SNB-75 = tested on: SNB-75
OVCAR-5 = tested on: OVCAR-5
NCI-H226 = tested on: NCI-H226
UO-31 = tested on: UO-31
Malme-3M = tested on: Malme-3M
COLO 205 = tested on: COLO 205
CCRF-CEM = tested on: CCRF-CEM
LOX IMVI = tested on: LOX IMVI

Measured: GI50

N#CCC(=O)Nn1c(CC#N)nnc1Cc1ccccc1
inactive: SF-268 > 100 µM | HCC 2998 > 100 µM | OVCAR-8 > 100 µM | ACHN > 100 µM | RPMI-8226 > 100 µM | IGROV-1 > 100 µM | NCI-H460 > 100 µM | UACC-62 > 100 µM | KM12 > 100 µM | MDA-MB-435 > 100 µM | SNB-75 > 100 µM | OVCAR-5 > 100 µM | NCI-H226 > 100 µM | UO-31 > 100 µM | Malme-3M > 100 µM

O=C1c2[nH]c3ccccc3c2CCN2CCCCC12 (centres undefined)
inactive: SF-268 33.8 µM | HCC 2998 17.2 µM | COLO 205 18.7 µM | OVCAR-8 25.2 µM | ACHN 21.9 µM | RPMI-8226 17.7 µM | IGROV-1 20.2 µM | NCI-H460 26.6 µM | CCRF-CEM 22.6 µM | UACC-62 18.8 µM | KM12 17.7 µM | MDA-MB-435 16.7 µM | SNB-75 28.5 µM | OVCAR-5 21.6 µM | LOX IMVI 22.3 µM | NCI-H226 27.8 µM | Malme-3M 25.6 µM

CCCCCC(/C=N/Nc1ccccc1)C(O)(C(F)(F)F)C(F)(F)F (centres undefined)
inactive: SF-268 > 100 µM | HCC 2998 > 100 µM | COLO 205 > 100 µM | OVCAR-8 > 100 µM | ACHN > 100 µM | RPMI-8226 > 100 µM | IGROV-1 > 100 µM | NCI-H460 > 100 µM | CCRF-CEM 83.2 µM | UACC-62 > 100 µM | MDA-MB-435 > 100 µM | SNB-75 > 100 µM | OVCAR-5 > 100 µM | LOX IMVI > 100 µM | NCI-H226 > 100 µM | UO-31 > 100 µM | Malme-3M > 100 µM

O=C(Nn1c(-c2ccccc2)nc2ccccc2c1=O)c1ccc(O)cc1
inactive: SF-268 > 100 µM | HCC 2998 > 100 µM | COLO 205 > 100 µM | OVCAR-8 > 100 µM | ACHN > 100 µM | RPMI-8226 > 100 µM | IGROV-1 > 100 µM | NCI-H460 > 100 µM | CCRF-CEM > 100 µM | UACC-62 > 100 µM | KM12 > 100 µM | MDA-MB-435 > 100 µM | SNB-75 > 100 µM | OVCAR-5 > 100 µM | NCI-H226 > 100 µM | UO-31 > 100 µM | Malme-3M > 100 µM

CC(=O)Oc1cc(Cl)c(C)c2c1[C@H]1CC[C@]3(C)[C@@H](OC(C)=O)CC[C@H]3[C@@H]1CC2
inactive: SF-268 > 100 µM | HCC 2998 > 100 µM | OVCAR-8 > 100 µM | ACHN > 100 µM | RPMI-8226 29.5 µM | IGROV-1 > 100 µM | NCI-H460 > 100 µM | CCRF-CEM > 100 µM | UACC-62 35 µM | KM12 > 100 µM | MDA-MB-435 > 100 µM | SNB-75 > 100 µM | OVCAR-5 > 100 µM | LOX IMVI > 100 µM | NCI-H226 > 100 µM | UO-31 > 100 µM | Malme-3M > 100 µM

CC(C)(C)c1ccc(CN2CCN(C(c3ccccc3)c3ccc(Cl)cc3)CC2)cc1 (centres undefined)
inactive: SF-268 77.6 µM | HCC 2998 31 µM | COLO 205 38.8 µM | OVCAR-8 > 100 µM | ACHN 68.5 µM | RPMI-8226 33.3 µM | IGROV-1 > 100 µM | NCI-H460 95.1 µM | UACC-62 > 100 µM | KM12 78 µM | MDA-MB-435 57.9 µM | SNB-75 > 100 µM | OVCAR-5 60.1 µM | LOX IMVI 34.4 µM | NCI-H226 22.1 µM | UO-31 63.5 µM | Malme-3M 45.6 µM

COc1ccc2c(c1)C(N)=C(c1ccccc1)C2=O
inactive: SF-268 27 µM | HCC 2998 81.8 µM | COLO 205 > 100 µM | OVCAR-8 34.4 µM | ACHN 33.9 µM | RPMI-8226 96.4 µM | IGROV-1 63.5 µM | NCI-H460 > 100 µM | CCRF-CEM > 100 µM | UACC-62 > 100 µM | KM12 36.6 µM | MDA-MB-435 > 100 µM | SNB-75 12.6 µM | OVCAR-5 > 100 µM | LOX IMVI > 100 µM | NCI-H226 87.9 µM | Malme-3M > 100 µM

COc1cc(C(=O)OC2CC34CCNC35CC(OC5(OC)C2O)c2cc3c(cc24)OCO3)ccc1O (centres undefined)
inactive: SF-268 > 100 µM | HCC 2998 > 100 µM | COLO 205 > 100 µM | OVCAR-8 > 100 µM | ACHN > 100 µM | RPMI-8226 > 100 µM | IGROV-1 > 100 µM | NCI-H460 > 100 µM | CCRF-CEM > 100 µM | UACC-62 > 100 µM | KM12 > 100 µM | MDA-MB-435 > 100 µM | SNB-75 46.8 µM | OVCAR-5 > 100 µM | LOX IMVI > 100 µM | NCI-H226 > 100 µM | Malme-3M 8.11 µM
